Results taken from US20160030416A1, “METHODS OF TREATING B2-BRADYKININ RECEPTOR MEDIATED ANGIOEDEMA” (SHIRE HUMAN GENETIC THERAPIES, INC., priority 2013, published 2016).

Legend:
plasma extravasation = assay: Plasma extravasation (Evans blue in bladder), oral gavage, female WT mice; format: in vivo
Experimental: The efficacy of CFMQ (HGT3711) following orally administration was studied in female WT mice. Eight mice per group received either vehicle or CFMQ (HGT3711) at 1.0, 3.0, 10, or 30 mg/kg by oral gavage. An additional dose group received Firazyr® (icatibant-0.4 mg/kg) as a subcutaneous (SC) injection. Similar to the previous studies, inhibition of EB content in the dried bladder (μg EB per milligram of tissue weight) was utilized as measurement of efficacy.

A3 (h) = biological target: T1, A3 (h) (Homo sapiens, UniProt P0DMS8); assay: Off-target receptor binding: A3
T1 construct: expressed in transfected cells; host or cells: CHO or HEK 293 (not assigned per receptor)
T1 sequence (P0DMS8 1-318): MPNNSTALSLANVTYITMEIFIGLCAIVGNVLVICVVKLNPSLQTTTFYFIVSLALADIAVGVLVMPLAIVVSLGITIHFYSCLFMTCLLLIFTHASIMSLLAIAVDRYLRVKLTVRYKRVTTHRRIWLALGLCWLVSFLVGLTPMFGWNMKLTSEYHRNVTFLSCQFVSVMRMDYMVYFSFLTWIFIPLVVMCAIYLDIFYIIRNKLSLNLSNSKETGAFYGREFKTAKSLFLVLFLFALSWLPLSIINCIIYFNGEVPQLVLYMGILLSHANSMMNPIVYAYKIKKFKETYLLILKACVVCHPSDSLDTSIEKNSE
Experimental: To determine the affinity to the B2-bradykinin receptor, CFMQ was compared to a diverse set of receptors and reference agents in an in vitro assay using cells from rat heart, urinary bladder, cerebral cortex, as well as human recombinant cells (CHO and HEK 293) and other cell lines. Each assay included a ligand at a specific concentration (concentration ranging from 0.007-10 nM), in addition to a non-specific ligand (concentration ranging from […]) for incubation periods ranging from 15 minutes to 6 hours at 4°-37° C. The specific binding to the receptors was defined as the difference between the total binding and the nonspecific binding, determined in the presence of an excess of unlabeled CFMQ. The concentration causing a half-maximal inhibition of control specific binding (IC50 values) and inhibition constants (Ki) were determined, and each reference compound was within the accepted limits of the historic average (±0.5 log units).

[1] = Bidirectional permeability in Caco-2 cells; format: in vitro ADME, human; conditions: human, 5 μM, 120 minutes
Experimental: (§1) To determine bidirectional permeability, CFMQ was examined in an in vitro incubation assay with […] (Caco-2 cell). CFMQ at 5 μM was dosed to the cell monolayers on the apical side (A-to-B) or basolateral side (B-to-A) and incubated at 37° C. with 5% CO2 for 120 minutes. Permeability of Lucifer Yellow (500 μM) was measured to ensure no damage was inflicted to the cell monolayers during the CFMQ flux period. All samples were assayed by LC-MS/MS using electrospray ionization.

Caco-2 cell = assay: Bidirectional permeability in Caco-2 cells; format: in vitro ADME, human
Experimental: as §1

[2] = Plasma kinetics, intravenous, Sprague-Dawley rats; format: in vivo, female Sprague-Dawley rats
Experimental: CFMQ (HGT3711) was administered to fasted female Sprague-Dawley rats by a single intravenous injection at 1.0 mg/kg, formulated in 100% PEG200 (Table 2.6.5.X, Study 10SHIRUSP11). Blood samples were taken via a jugular vein cannula prior to administration and at 0.083 (5 min), 0.25 (15 min), 0.50 (30 min), 1, 2, 4 and 8 hours post dose. Plasma concentrations of CFMQ (HGT3711) were determined by LC-MS/MS and concentrations below the limit of quantitation (1 ng/mL) were assigned a value of zero for pharmacokinetic analysis. Nominal dosing concentrations were used in all calculations.

[3] = In vitro microsomal stability, mouse; format: in vitro ADME; conditions: Mouse (CD-1), Male
Experimental: (§2) In vitro metabolic stability studies were performed to determine hepatic stability in vivo. CFMQ was incubated in liver microsomal preparations from mouse, rat, dog, mini-pig, and humans, as well as an additional study with monkey and human. CFMQ was incubated with human and animal liver microsomes at 0.3 mg/mL at 37° C. for 30 or 60 minutes. Additional reference compounds were incubated as controls. Following incubation, samples were analyzed by HPLC-MS/MS.

[4] = In vitro microsomal stability, rat; format: in vitro ADME; conditions: Rat (Wistar)
Experimental: as §2

[5] = In vitro microsomal stability, dog; format: in vitro ADME; conditions: Dog (Beagle), Male
Experimental: as §2

[6] = Extrapolation of human oral dose by allometric scaling and pharmacokinetic simulation; conditions: human equivalent dose of 0.8 mg/kg
Experimental: A pharmacokinetic extrapolation for a human oral dose was performed using allometric scaling of clearance and volume of distribution. The human pharmacokinetic values were extrapolated from in vivo mouse, rat, dog and monkey pharmacokinetic studies. […] This model was based on the assumption that all of the clearance pathways in the human were captured in the pre-clinical species.

[7] = female, Sprague-Dawley, rat, plasma, IV 1 mg/kg

SMILES: Cc1cc(Cl)c(COc2cccc3c(-n4cc(F)cn4)cc(C)nc23)c(Cn2cccc(C#N)c2=O)n1 [CFMQ, 1-((4-Chloro-3-(((4-(4-fluoro-1H-pyrazol-1-yl)-2-methylquinolin-8-yl)oxy)methyl)-6-methylpyridin-2-yl)methyl)-2-oxo-1,2-dihydropyridine-3-carbonitrile]
- plasma value (plasma extravasation; oral 10.0 mg/kg): 267 nM
- inhibition of EB accumulation in the bladder (plasma extravasation; oral 10 mg/kg, female WT mice): ~100%
- efficacy compared with 0.4 mg/kg SC Firazyr (plasma extravasation; oral 10.0 mg/kg, female WT mice): equally effective
- inhibition of EB accumulation in the bladder (plasma extravasation; oral 30 mg/kg, female WT mice): ~100%
- minimally-effective dose (MED) (plasma extravasation; oral gavage, female WT mice): 3.0 mg/kg
- IC50 (A3 (h)): 7.6 µM
- Ki (A3 (h)): 4.5 µM
- nH (A3 (h)): 1.4
- inhibition at 10 µM (A3 (h); CFMQ at 10 μM): 53%
- Papp A→B at 120 min, 5 μM ([1]; apical to basolateral, read-out: permeability coefficient A-to-B): 34 ×10⁻⁶ cm/s
- Papp B→A at 120 min, 5 μM ([1]; basolateral to apical, read-out: permeability coefficient B-to-A): 38 ×10⁻⁶ cm/s
- efflux (Caco-2 cell): no significant efflux
- permeability classification (Caco-2 cell): highly permeable
- clearance as % of liver blood flow in rat (3.3 L/hr/kg) ([2]; IV 1 mg/kg): approximately 30%
- adverse reactions ([2]; IV 1.0 mg/kg, rats): no adverse reactions observed
- AUC(0-inf) [2, 7]: 1410 ng·h/mL
- AUC(0-t) [2, 7]: 1150 ng·h/mL
- C0 [2, 7]: 747 ng/mL
- Tmax [2, 7]: 0 h
- clearance [2, 7]: 15.8 mL/min/kg
- half-life [2, 7]: 2.86 ± 2.54 h
- concentration at 0 hr ([2]; female, Sprague-Dawley, rat, plasma, IV 1 mg/kg, 0 hr, read-out: Average Concentration of HGT3711): 0 ng/mL
- concentration at 0.083 hr ([2]; female, Sprague-Dawley, rat, plasma, IV 1 mg/kg, 0.083 hr, read-out: Average Concentration of HGT3711): 597 ng/mL
- concentration at 0.25 hr ([2]; female, Sprague-Dawley, rat, plasma, IV 1 mg/kg, 0.25 hr, read-out: Average Concentration of HGT3711): 401 ng/mL
- concentration at 0.5 hr ([2]; female, Sprague-Dawley, rat, plasma, IV 1 mg/kg, 0.50 hr, read-out: Average Concentration of HGT3711): 324 ng/mL
- concentration at 1 hr ([2]; female, Sprague-Dawley, rat, plasma, IV 1 mg/kg, 1.0 hr, read-out: Average Concentration of HGT3711): 248 ng/mL
- concentration at 2 hr ([2]; female, Sprague-Dawley, rat, plasma, IV 1 mg/kg, 2.0 hr, read-out: Average Concentration of HGT3711): 160 ng/mL
- concentration at 4 hr ([2]; female, Sprague-Dawley, rat, plasma, IV 1 mg/kg, 4.0 hr, read-out: Average Concentration of HGT3711): 113 ng/mL
- concentration at 8 hr ([2]; female, Sprague-Dawley, rat, plasma, IV 1 mg/kg, 8.0 hr, read-out: Average Concentration of HGT3711): 36.9 ng/mL
- Vd ([2]; female, Sprague-Dawley, rat, plasma, IV 1 mg/kg, read-out: Vss): 2.6 ± 1.1 L/kg
- % Remaining [30 minutes] ([3]; 30 minutes): 7%
- % Remaining [60 minutes] ([3]; 60 minutes): 3%
- % Remaining [30 minutes] ([4]; Female): 76%
- % Remaining [60 minutes] ([4]; Female): 60%
- % Remaining [30 minutes] ([4]; Male): 3%
- % Remaining [60 minutes] ([4]; Male): 0%
- % Remaining [30 minutes] ([5]; 30 minutes): 66%
- % Remaining [60 minutes] ([5]; 60 minutes): 45%
- time plasma levels stay above the predicted efficacious levels ([6]; bioavailability 25%): greater than 5 hours
- time plasma levels stay above the predicted efficacious levels ([6]; bioavailability 50%): > 10 h
- time plasma levels stay above the predicted efficacious levels ([6]; bioavailability 75%): > 12 h
